Data from the supplement of paper PMC10307832.

Experiments:
Test in all cases: relative viability (nuclei count vs DMSO), 5 days (fraction); higher = more cells survive
Sulindac + Phenformin = compound: CC1=C(CC(=O)O)c2cc(F)ccc2/C1=C\c1ccc([S+](C)[O-])cc1 [Sulindac] + N=C(N)NC(=N)NCCc1ccccc1 [Phenformin] (partner 250 µM)
Summary of the method: (§1)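 Five library-drug doses in √10 steps were combined with a fixed anchor-drug dose, or a single drug was given alone, by pin tool to lung cancer cell lines in 1536-well plates the day after seeding. Nuclei were stained and counted after 5 days. Relative viability is the nuclei count in treated wells over that in vehicle wells, taken as the median of duplicate plates.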

Sulindac + Navitoclax = compound: CC1=C(CC(=O)O)c2cc(F)ccc2/C1=C\c1ccc([S+](C)[O-])cc1 [Sulindac] + CC1(C)CCC(c2ccc(Cl)cc2)=C(CN2CCN(c3ccc(C(=O)NS(=O)(=O)c4ccc(N[C@H](CCN5CCOCC5)CSc5ccccc5)c(S(=O)(=O)C(F)(F)F)c4)cc3)CC2)C1 [Navitoclax] (partner 0.5 µM)
Summary of the method: as §1

[1] = compound: CN[C@@H]1C[C@H]2O[C@@](C)([C@@H]1OC)n1c3ccccc3c3c4c(c5c6ccccc6n2c5c31)C(=O)NC4 [Staurosporine] + CCNC(=O)c1noc(-c2cc(C(C)C)c(O)cc2O)c1-c1ccc(CN2CCOCC2)cc1 [Luminespib] (partner 0.01 µM)
Summary of the method: as §1

[2] = compound: CN[C@@H]1C[C@H]2O[C@@](C)([C@@H]1OC)n1c3ccccc3c3c4c(c5c6ccccc6n2c5c31)C(=O)NC4 [Staurosporine] + CC(=O)Nc1cccc(-n2c(=O)n(C3CC3)c(=O)c3c(Nc4ccc(I)cc4F)n(C)c(=O)c(C)c32)c1 [Trametinib] (partner 0.02 µM)
Summary of the method: as §1

Cell Line	relative viability (Sulindac + Phenformin; first compound 0.08 µM)	relative viability (Sulindac + Phenformin; first compound 0.253 µM)	relative viability (Sulindac + Phenformin; first compound 0.8 µM)	relative viability (Sulindac + Phenformin; first compound 2.53 µM)	relative viability (Sulindac + Phenformin; first compound 8 µM)	relative viability (Sulindac + Navitoclax; first compound 0.08 µM)	relative viability (Sulindac + Navitoclax; first compound 0.253 µM)	relative viability (Sulindac + Navitoclax; first compound 0.8 µM)	relative viability (Sulindac + Navitoclax; first compound 2.53 µM)	relative viability (Sulindac + Navitoclax; first compound 8 µM)	relative viability ([1]; first compound 0.005 µM)	relative viability ([1]; first compound 0.01581 µM)	relative viability ([1]; first compound 0.05 µM)	relative viability ([1]; first compound 0.1581 µM)	relative viability ([1]; first compound 0.5 µM)	relative viability ([2]; first compound 0.005 µM)	relative viability ([2]; first compound 0.01581 µM)	relative viability ([2]; first compound 0.05 µM)	relative viability ([2]; first compound 0.1581 µM)	relative viability ([2]; first compound 0.5 µM)
BEN	0.284	0.276	0.227	0.218	0.275	0.0725	0.0631	0.065	0.0775	0.0638	0.397	0.256	0.383	0.152	0.129	1.21	1.2	0.827	0.729	0.439
NCI-H1666	0.564	0.629	0.561	0.529	0.631	–	0.963	0.793	0.853	1.19	0.758	0.582	0.604	0.38	0.279	0.785	0.573	0.635	0.513	0.456
NCI-H1993	0.431	0.479	0.51	0.461	0.531	1.13	0.917	0.871	0.933	0.88	0.75	0.532	0.51	0.494	0.303	0.45	0.453	0.51	0.36	0.278
NCI-H520	0.738	0.949	0.412	0.347	0.67	1.33	1.17	1.03	1.04	1.44	0.194	0.309	0.233	0.212	0.185	0.708	0.536	0.303	0.16	0.112
NCI-H1975	0.27	0.404	0.365	0.403	0.457	1.26	1.24	–	1.21	1.25	0.159	0.155	0.131	0.169	0.146	0.18	0.141	0.139	0.121	0.1
